# From US20090312274A1, “Nyasol and Analogs Thereof for the Treatment of Estrogen Receptor Beta-Mediated Diseases” (Bionovo, Inc., priority 2008, published 2009)
# “Also recorded” adds a separate entry of the source.
# Tests used:
# [1] = test system: TNF-RE tkLuc; assay: Activation of the TNF-RE tkLuc reporter (TNF-α, antiestrogens); assay type: cell-based; details: for activation of TNF-RE tkLuc by antiestrogens: in contrast to E2
# [2] = target: T1, ERβ (Homo sapiens, UniProt Q92731); details: in the presence of ERβ
# [3] = target: T2, estrogen receptor beta (ERβ) (Homo sapiens, UniProt Q92731); assay: ERE-tkLuc luciferase expression with nyasol in cells coexpressing ERβ (FIG. 3, FIG. 5); assay type: cell-based
# T2 construct: expressed in transfected cells
# Source text: FIG. 3 is a graph comparing luciferase expression in cells transformed with DNA encoding estrogen response element alpha linked to the minimal thymidine kinase (tk) promoter and a sequence encoding luciferase (Luc) in response to varying concentrations of nyasol in the presence of either estrogen receptor alpha (ERα) or estrogen receptor beta (ERβ).
# [4] = test system: MCF-7 breast cancer cells; assay: MCF-7 kidney capsule xenografts in nude mice; set-up: dose or concentration left out as unconfirmed; details: 28 days
# Experimental: MCF-7 xenografts were introduced into nude mouse kidneys. Mice were randomized to three treatment groups. […] Each treatment group was treated for 28 days, after which mice were euthanized and the kidneys containing the xenografts were excised, photographed and weighed.
# [5] = target: T1, ERβ; assay: Concentration binding curve for Nyasol, ERβ (FIG. 6)
# [6] = target: T3, ERα (Homo sapiens, UniProt P03372); assay: Concentration binding curve for Nyasol, ERα (FIG. 6)
# T3 sequence (P03372 1-595): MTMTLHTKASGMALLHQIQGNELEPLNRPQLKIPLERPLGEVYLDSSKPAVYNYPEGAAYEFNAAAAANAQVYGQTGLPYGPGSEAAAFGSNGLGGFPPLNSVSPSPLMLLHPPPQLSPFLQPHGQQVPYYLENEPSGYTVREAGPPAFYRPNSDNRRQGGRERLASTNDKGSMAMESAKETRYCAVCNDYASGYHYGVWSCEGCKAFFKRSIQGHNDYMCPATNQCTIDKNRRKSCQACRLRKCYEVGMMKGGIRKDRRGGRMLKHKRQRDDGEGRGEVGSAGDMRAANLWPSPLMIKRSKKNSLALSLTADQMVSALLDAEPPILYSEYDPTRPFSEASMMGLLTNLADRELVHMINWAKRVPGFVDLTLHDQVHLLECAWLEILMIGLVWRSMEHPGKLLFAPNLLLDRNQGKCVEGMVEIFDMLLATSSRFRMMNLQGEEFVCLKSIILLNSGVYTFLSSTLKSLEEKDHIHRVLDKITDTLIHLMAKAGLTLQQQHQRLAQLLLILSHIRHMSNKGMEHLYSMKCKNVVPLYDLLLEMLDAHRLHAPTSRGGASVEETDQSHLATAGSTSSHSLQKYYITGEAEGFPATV
# [7] = test system: TNFα-RE; assay: Repression of TNFα-RE linked expression of Luc by nyasol (FIG. 4); details: in vitro
# [8] = test system: breast cancer; details: among the 5129 women in the raloxifene treatment group; median follow-up 40 months; cited from earlier work
# [9] = test system: estrogen receptor-positive breast cancer; details: cited from earlier work
# [10] = test system: primary invasive breast cancer; details: women at high risk for breast cancer; cited from earlier work
# [11] = five years of tamoxifen therapy
# T2 sequence (Q92731 whole entry): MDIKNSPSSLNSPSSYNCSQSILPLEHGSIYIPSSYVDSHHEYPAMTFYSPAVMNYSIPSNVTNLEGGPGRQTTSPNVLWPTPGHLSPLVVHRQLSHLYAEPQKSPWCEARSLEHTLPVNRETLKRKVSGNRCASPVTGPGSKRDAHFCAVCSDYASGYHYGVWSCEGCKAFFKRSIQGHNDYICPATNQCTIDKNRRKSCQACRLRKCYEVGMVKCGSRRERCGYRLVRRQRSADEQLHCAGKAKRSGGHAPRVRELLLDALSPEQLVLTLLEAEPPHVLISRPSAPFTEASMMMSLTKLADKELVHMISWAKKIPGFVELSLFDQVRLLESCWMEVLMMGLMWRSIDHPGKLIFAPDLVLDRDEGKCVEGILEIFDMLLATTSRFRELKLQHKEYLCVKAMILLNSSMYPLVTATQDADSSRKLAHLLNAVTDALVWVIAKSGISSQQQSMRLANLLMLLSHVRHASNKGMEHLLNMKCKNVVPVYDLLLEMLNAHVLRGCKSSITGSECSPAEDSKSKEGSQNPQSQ
# T1 sequence (Q92731 whole entry): as above
compound,measurement,setting,value
TNF-α,activation of 3 copies of the TNF-RE (−125 to −82) upstream of the tk promoter,[1]; TNF-α as stimulus,5-10 fold
"C[C@]12CC[C@@H]3c4ccc(O)cc4CC[C@H]3[C@@H]1CC[C@@H]2O [E2, estradiol]",repression of TNF-α activation of TNF-RE tkLuc,[2],60-80%
"C=CC(/C=C\c1ccc(O)cc1)c1ccc(O)cc1 (centres unmarked) [Nyasol, nyasol]","ERβ-selective activation of the ERE (luciferase expression, ERβ versus ERα)","[3]; FIG. 3, varying concentrations of nyasol, ERE-tkLuc",selectively activates the ERE; also recorded: selective estrogen receptor beta agonist
same,expression of luciferase in ERE-tkLuc-transformed cells coexpressing ERβ,"[3]; FIG. 5, nyasol, control EtOH",activated the ERE
same,growth of MCF-7 kidney capsule xenografts compared to control,[4],inhibits the growth
same,binding of ERβ with nyasol,[5],bind
same,binding of ERα with nyasol,[6],bind
same,repression of TNFα-RE linked expression of Luc,[7],selectively represses
C[C@]12CC[C@@H]3c4ccc(O)cc4C[C@@H](CCCCCCCCC[S+]([O-])CCCC(F)(F)C(F)(F)F)[C@H]3[C@@H]1CC[C@@H]2O (some centres unmarked) [ICI 182780],activation of TNF-RE tkLuc by antiestrogens,[1],2 fold
O=C(c1ccc(OCCN2CCCCC2)cc1)c1c(-c2ccc(O)cc2)sc2cc(O)ccc12 [raloxifene],activation of TNF-RE tkLuc by antiestrogens,[1],2 fold
same,effect of addition to nyasol on activation of the ERE,"[3]; FIG. 5, added together with Nyasol, ERβ",reduced this activation
same,cases of breast cancer,[8],13 cases
CC/C(=C(\c1ccccc1)c1ccc(OCCN(C)C)cc1)c1ccccc1 [tamoxifen],activation of TNF-RE tkLuc by antiestrogens,[1],2 fold
same,reduction of mortality from breast cancer,[9]; [11],22%
same,reduction of the risk of recurrences,[9]; [11],42%
same,ER positive breast tumors that respond,[9]; fraction of tumors,⅔
same,reduction of the risk of primary invasive breast cancer,[10],49%
